Results on three substances are retold here after ChEMBL document CHEMBL3352520, “CoMFA and CoMSIA analysis of ACE-inhibitory, antimicrobial and bitter-tasting peptides” (Eur J Med Chem, 2014).

For assay [1], the system named is Pseudomonas aeruginosa. In words: antimicrobial activity against Pseudomonas aeruginosa.
For assay [2], the system named is Pseudomonas aeruginosa. Briefly: Antimicrobial activity against Pseudomonas aeruginosa relative to peptide Bac2A RLARIVVIRVAR sequence.

As a reminder, the pIC50 is −log10 of the IC50, conventionally taken in molar units. Read a high pIC50 as a small IC50. Consider H-IRRRWWWIV-OH, for which the pIC50 in assay [1] turned out to be 6.64. For the same substance, in assay [2], the Ratio IC50 was 0.23.

The substance H-WRWWKWWRR-OH had a pIC50 in assay [1] of 6.64. The Ratio IC50 in assay [2] is 0.23.

In assay [1], H-KKRWLWWWR-OH showed a pIC50 of 6.52. Besides, the Ratio IC50 in assay [2] worked out at 0.3.
